# Read-outs that look alike come from different tables or passages of the source.
# Assays:
# HepG2 = details: read-out: HepG2 IC50; cytotoxicity; previously published ref 7 (Leven et al.); cited from earlier work
# [1] = system: FCB WT and FCB KD parasite lines; experiment: Potency against FCB lines with different pfmdr1 copy numbers; assay type: cell-based, Plasmodium falciparum; details: FCB WT (two copies of pfmdr1) versus FCB KD (one functional copy)
# Pf_Polδ = assay type: cell-based, Plasmodium falciparum; details: Pf_Polδ parasites exposed to 45 nM (3 × IC50)
# [2] = system: heme detoxification in Pf NF54 trophozoites; experiment: Pyridine-based cellular heme fractionation assay; assay type: cell-based, Plasmodium falciparum; details: Pf NF54, 1.5 to 2.5 × IC50
# [3] = Snapshot in vivo PK, dried blood spots, LC-MS/MS; details: mouse, po; for k el: ke
# Pf Dd2 clone B2 (Dd2-B2) = assay type: cell-based, Plasmodium falciparum; details: triplicate flasks of 2 × 10^9 Dd2-B2 parasites, 3× to 5× IC50
# [4] = system: compound 1-resistant clones Fl2-C4 and Fl3-C3; assay type: cell-based, Plasmodium falciparum; details: clones Fl2-C4 and Fl3-C3, standard 72 h drug-response assay
# PfDd2 = assay type: cell-based; details: Plasmodium falciparum, read-out: PfDd2 IC50±SD
# Pf 3D7 = assay type: cell-based; details: Plasmodium falciparum, 3D7, read-out: Pf3D7 IC50±SD
# [5] = human, 5 h, 1 μM, pH 7.4
# [6] = 4 × 30 mg/kg oral, monitored up to 30 days
smiles,measurement,setting,value
"Cl.N/C(CC(O)c1c2ccccc2cc2ccccc12)=N\c1ccc(F)cc1 (centres unmarked) [Compound 23, (Z)-3-(Anthracene-9-yl)-N′-(4-fluorophenyl)-3-hydroxypropanimidamide Hydrochloride]",cured (number of parasite-free mice on day 30),Plasmodium berghei; 4 × 50 mg/kg oral,0/3
same,MSD (mean survival time),"Plasmodium berghei; 4 × 50 mg/kg oral, monitored up to 30 days",euthanized
same,activity,"Plasmodium berghei; 4 × 50 mg/kg oral, parasitemia by FACS on day 4, 50 mg/kg",44%
"C[C@H]1[C@H](OC(=O)CCC(=O)O)O[C@@H]2O[C@@]3(C)CC[C@H]4[C@H](C)CC[C@@H]1[C@@]24OO3 [AS, artesunate, reference compound]",cured (number of parasite-free mice on day 30),Plasmodium berghei; 4 × 30 mg/kg oral,0/10
N/C(CC(O)c1cc2c(F)cc(F)cc2c2cc(C(F)(F)F)ccc12)=N\N=C\c1ccc(F)cc1 (centres unmarked) [Compound 1],IC50,HepG2,27700 nM
same,cured (number of parasite-free mice on day 30),Plasmodium berghei; 4 × 10 mg/kg oral,2/3
same,cured (number of parasite-free mice on day 30),Plasmodium berghei; 4 × 30 mg/kg oral,1/3
same,MSD (mean survival time),Plasmodium berghei; [6],26 days
same,cured (number of parasite-free mice on day 30),Plasmodium berghei; 4 × 50 mg/kg oral,1/3
same,effect of pfmdr1 copy number on sensitivity,[1],the decrease from two to one pfmdr1 copy caused a further sensitization
"COc1ccc(/N=C(\N)CC(O)c2cc3c(F)cc(F)cc3c3cc(C(F)(F)F)ccc23)cc1.Cl (centres unmarked) [Compound 22, (Z)-3-(1,3-Difluoro-6-(trifluoromethyl)phenanthrene-9-yl)-3-hydroxy-N′-(4-methoxyphenyl)propanimidamide Hydrochloride]",cure rate,Plasmodium berghei; 30 mg/kg once daily oral for 4 consecutive days,33%
same,cure rate,Plasmodium berghei; 50 mg/kg once daily oral for 4 consecutive days,66%
same,MSD (mean survival time),Plasmodium berghei; 4 × 3 mg/kg oral,euthanized
same,cured (number of parasite-free mice on day 30),Plasmodium berghei; 4 × 3 mg/kg oral,0/3
same,cured (number of parasite-free mice on day 30),Plasmodium berghei; 4 × 10 mg/kg oral,0/3
same,cured (number of parasite-free mice on day 30),Plasmodium berghei; 4 × 30 mg/kg oral,1/3
same,MSD (mean survival time),Plasmodium berghei; [6],28 days
same,cured (number of parasite-free mice on day 30),Plasmodium berghei; 4 × 50 mg/kg oral,2/3
same,signs of toxicity during the in vivo studies,"Plasmodium berghei; mice, oral doses 3-50 mg/kg",no obvious signs of toxicity
same,outcome of resistance selection,Pf_Polδ,unable to readily generate resistant parasites
same,inhibition of hemoglobin degradation,[2],some inhibition of hemoglobin degradation
same,AUC(0-inf),[3]; 3 mg/kg,30 ng·h/mL
same,AUC(0-t),[3]; 3 mg/kg,28.9 ng·h/mL
same,half-life,[3]; 3 mg/kg,5.49 h
same,k el,"[3]; 3 mg/kg, single oral dose 3 mg/kg, mouse I",3.69e-05 s⁻¹
same,k el,"[3]; 3 mg/kg, single oral dose 3 mg/kg, mouse II",3.51e-05 s⁻¹
same,AUC(0-inf),[3]; 10 mg/kg,365 ng·h/mL
same,AUC(0-t),[3]; 10 mg/kg,361 ng·h/mL
same,half-life,[3]; 10 mg/kg,5.26 h
same,k el,"[3]; 10 mg/kg, single oral dose 10 mg/kg, mouse I",4.66e-05 s⁻¹
same,k el,"[3]; 10 mg/kg, single oral dose 10 mg/kg, mouse II",3.66e-05 s⁻¹
same,AUC(0-inf),[3]; 30 mg/kg,1310 ng·h/mL
same,AUC(0-t),[3]; 30 mg/kg,1080 ng·h/mL
same,half-life,[3]; 30 mg/kg,9.95 h
same,k el,"[3]; 30 mg/kg, single oral dose 30 mg/kg, mouse I",1.94e-05 s⁻¹
same,k el,"[3]; 30 mg/kg, single oral dose 30 mg/kg, mouse II",2.74e-05 s⁻¹
same,effect of pfmdr1 copy number on sensitivity,[1],the decrease from two to one pfmdr1 copy caused a further sensitization
same,outcome of resistance selection,Pf Dd2 clone B2 (Dd2-B2),no viable parasites after 60 days
same,shift in IC50 value in compound 1-resistant clones,[4],1.6 fold
"CCN(CC)CCCC(C)Nc1ccnc2cc(Cl)ccc12 (centres unmarked) [CQ, Chloroquine]",cured (number of parasite-free mice on day 30),Plasmodium berghei; 4 × 30 mg/kg oral,0/10
same,IC50,PfDd2,230 ± 100 nM
same,IC50,Pf 3D7,6 ± 2 nM
"CCCCN(CCCC)CCC(O)c1cc2c(Cl)cc(Cl)cc2c2cc(C(F)(F)F)ccc12 (centres unmarked) [HF, Halofantrine]",plasma protein binding,[5],100%
"CCCCN(CCCC)CC(O)c1cc(Cl)cc2c1-c1ccc(Cl)cc1/C2=C/c1ccc(Cl)cc1 (centres unmarked) [LUM, Lumefantrine, reference compound]",cured (number of parasite-free mice on day 30),Plasmodium berghei; 4 × 30 mg/kg oral,3/3

# Reference: PMC8211464 (Journal of medicinal chemistry, 2021)
